Experiment [1] deals with Vascular endothelial growth factor receptor 2 (Homo sapiens, UniProt P35968). As to the kind of experiment: Inhibition of recombinant GST-fused VEGFR2 expressed in baculovirus infected Sf9 cells by DELFIA.
In experiment [2] the target is T1, Hepatocyte growth factor receptor (Homo sapiens, UniProt P08581). Kind of experiment: Inhibition of TPR-fused Met autophosphorylation expressed in HEK293T cells after 150 mins by ELISA. The class given is cell-based. Conditions: hek-293t. (In an ELISA, binding on a coated surface is turned into a signal by an enzyme label.)
For experiment [3], the target named is T1, Hepatocyte growth factor receptor. Kind of experiment: Inhibition of recombinant GST-fused c-Met expressed in baculovirus infected high five cells by DELFIA.
The target of experiment [4] is Vascular endothelial growth factor receptor 1 (Homo sapiens) (UniProt P17948). As to the kind of experiment: Inhibition of human VEGFR1 at 0.1 uM.
In experiment [5] the target is Vascular endothelial growth factor receptor 3 (Homo sapiens) (UniProt P35916). As to the kind of experiment: Inhibition of human VEGFR3 at 0.1 uM.
Experiment [6] has as its target High affinity nerve growth factor receptor (Homo sapiens) (UniProt P04629). Particulars: 0.1 uM.
Description: Inhibition of human TrkA at 0.1 uM
In experiment [7] the target is ALK tyrosine kinase receptor (Homo sapiens) (UniProt Q9UM73). Conditions: 0.1 uM.
Description: Inhibition of human ALK at 0.1 uM
In experiment [8] the target is Cytoplasmic tyrosine-protein kinase BMX (Homo sapiens) (UniProt P51813). Conditions: 0.1 uM.
Description: Inhibition of human Bmx at 0.1 uM
In experiment [9] the target is Serine/threonine-protein kinase Chk1 (Homo sapiens) (UniProt O14757). Particulars: 0.1 uM.
Description: Inhibition of human CHK1 at 0.1 uM
Experiment [10] has as its target Mast/stem cell growth factor receptor Kit (Homo sapiens) (UniProt P10721). Conditions: 0.1 uM.
Description: Inhibition of human c-Kit at 0.1 uM
The target in experiment [11] is RAF proto-oncogene serine/threonine-protein kinase (Homo sapiens) (UniProt P04049). Conditions: 0.1 uM.
Description: Inhibition of human c-Raf at 0.1 uM
In experiment [12] the target is Glycogen synthase kinase-3 beta (Homo sapiens) (UniProt P49841). Particulars: 0.1 uM.
Description: Inhibition of human GSK3-beta at 0.1 uM
The target of experiment [13] is Serine/threonine-protein kinase haspin (Homo sapiens) (UniProt Q8TF76). Particulars: 0.1 uM.
Description: Inhibition of human haspin at 0.1 uM
Experiment [14] concerns the target Inhibitor of nuclear factor kappa-B kinase subunit beta (Homo sapiens) (UniProt O14920). Particulars: 0.1 uM.
Description: Inhibition of human IKK-beta at 0.1 uM
In experiment [15] the target is Tyrosine-protein kinase JAK2 (Homo sapiens) (UniProt O60674). Conditions: 0.1 uM.
Description: Inhibition of human JAK2 at 0.1 uM
Experiment [16] has as its target Tyrosine-protein kinase JAK3 (Homo sapiens) (UniProt P52333). Particulars: 0.1 uM.
Description: Inhibition of human JAK3 at 0.1 uM
For experiment [17], the target named is LIM domain kinase 1 (Homo sapiens) (UniProt P53667). Particulars: 0.1 uM.
Description: Inhibition of human LIMK1 at 0.1 uM
For experiment [18], the target named is Dual specificity mitogen-activated protein kinase kinase 1 (Homo sapiens) (UniProt Q02750). Conditions: 0.1 uM.
Description: Inhibition of human MEK1 at 0.1 uM
The target in experiment [19] is 3-phosphoinositide-dependent protein kinase 1 (Homo sapiens) (UniProt O15530). Conditions: 0.1 uM.
Description: Inhibition of human PDK1 at 0.1 uM
For experiment [20], the target named is Phosphatidylinositol 4,5-bisphosphate 3-kinase catalytic subunit beta isoform (Homo sapiens) (UniProt P42338). Particulars: 0.1 uM.
Description: Inhibition of human PI3Kbeta at 0.1 uM
Experiment [21] deals with Serine/threonine-protein kinase pim-1 (Homo sapiens) (UniProt P11309). Particulars: 0.1 uM.
Description: Inhibition of human Pim1 at 0.1 uM
The target in experiment [22] is RAC-alpha serine/threonine-protein kinase (Homo sapiens) (UniProt P31749). Particulars: 0.1 uM.
Description: Inhibition of human PKBalpha at 0.1 uM
For experiment [23], the target named is Proto-oncogene tyrosine-protein kinase receptor Ret (Homo sapiens) (UniProt P07949). Particulars: 0.1 uM.
Description: Inhibition of human Ret at 0.1 uM
For experiment [24], the target named is Focal adhesion kinase 1 (Homo sapiens) (UniProt Q05397). Particulars: 0.1 uM.
Description: Inhibition of human FAK at 0.1 uM
For experiment [25], the target named is Ephrin type-B receptor 4 (Homo sapiens) (UniProt P54760). Particulars: 0.1 uM.
Description: Inhibition of human EphB4 at 0.1 uM
The target in experiment [26] is Receptor-type tyrosine-protein kinase FLT3 (Homo sapiens) (UniProt P36888). Particulars: 0.1 uM.
Description: Inhibition of human Flt3 at 0.1 uM
Experiment [27] concerns the target T1, Hepatocyte growth factor receptor. Particulars: 0.1 uM.
Description: Inhibition of human c-MET at 0.1 uM
Experiment [28] has as its target Macrophage-stimulating protein receptor (Homo sapiens) (UniProt Q04912). Conditions: 0.1 uM.
Description: Inhibition of human RON at 0.1 uM
Experiment [29] addresses Angiopoietin-1 receptor (Homo sapiens) (UniProt Q02763). Conditions: 0.1 uM.
Description: Inhibition of human Tie2 at 0.1 uM
For experiment [30] the target is unchanged. As to the kind of experiment: Inhibition of human Tie2.
The target of experiment [31] is T1, Hepatocyte growth factor receptor. As to the kind of experiment: Inhibition of human c-MET.
For experiment [32], the target named is Macrophage-stimulating protein receptor (Homo sapiens) (UniProt Q04912). Kind of experiment: Inhibition of human RON.
The target of experiment [33] is Receptor-type tyrosine-protein kinase FLT3 (Homo sapiens) (UniProt P36888). As to the kind of experiment: Inhibition of human Flt3.
Experiment [34] concerns the target Aurora kinase A (Homo sapiens) (UniProt O14965). As to the kind of experiment: Inhibition of human Aurora A.
Experiment [35] has as its target Vascular endothelial growth factor receptor 1 (Homo sapiens) (UniProt P17948). As to the kind of experiment: Inhibition of human VEGFR1.
Experiment [36] concerns the target Vascular endothelial growth factor receptor 3 (Homo sapiens) (UniProt P35916). Kind of experiment: Inhibition of human VEGFR3.
Experiment [37] concerns HUVEC. Kind of experiment: Inhibition of VEGF-induced HUVEC proliferation. The class given is functional, cell-based. Conditions: Homo sapiens.
For experiment [38], the system named is HUVEC. Kind of experiment: Antiangiogenic activity in HUVEC assessed as inhibition of tubule length. The class given is functional, cell-based. Conditions: Homo sapiens.
For experiment [39], the system named is HUVEC. As to the kind of experiment: Antiangiogenic activity in HUVEC assessed as inhibition of VEGF-induced tubule growth at 100 nM. The class given is functional. Conditions: Homo sapiens.
Experiment [40] relates to HUVEC. As to the kind of experiment: Antiangiogenic activity in HUVEC assessed as inhibition of tubule branching. The class given is functional, cell-based. Conditions: Homo sapiens.
Experiment [41] concerns HUVEC. Kind of experiment: Antiangiogenic activity in HUVEC assessed as inhibition of VEGF-induced tubule branching at 100 nM. The class given is functional. Particulars: Homo sapiens.

Active and inactive are the calls of the source. No cut-off for these calls is given here. A value given as a limit tells only on which side of the number the result lay.

Data on 12 compounds can be found in ChEMBL document CHEMBL1156855, “Identification of potent and selective VEGFR receptor tyrosine kinase inhibitors having new amide isostere headgroups” (Bioorg Med Chem Lett, 2010).

By IC50 is commonly meant the concentration needed to halve the response being measured. One may read the inhibition as how much of the control response was suppressed.

On to `Cn1cnc(-c2cc3nccc(Oc4ccc(NC(=O)CC(Nc5ccccc5)C(F)(F)F)cc4F)c3s2)c1` (configuration not stated), for which the IC50 in [1] worked out at 210 nM.

Consider `Cn1cnc(-c2cc3nccc(Oc4ccc(NC(CC(=O)Nc5ccc(F)cc5)C(F)(F)F)cc4F)c3s2)c1` (configuration not stated), for which the 50% inhibitory concentration (IC50) in experiment [2] stood at 370 nM; in experiment [1] it was 20 nM; in [3], 90 nM.

For `COc1cc2nccc(Oc3ccc(NC(CC(=O)Nc4ccccc4)C(F)(F)F)cc3F)c2cc1OC` (configuration not stated), the results for the IC50 in experiment [1] and in [3] were 30 nM and 910 nM, respectively.

As to `O=C(CC(Nc1ccc(F)cc1)C(F)(F)F)Nc1ccc(Oc2cc(NC(=O)N3CCCC3)ncn2)c(F)c1` (configuration not stated), the IC50 in experiment [1] is 1200 nM; in experiment [3], > 5000 nM.

Regarding `Cn1cnc(-c2cc3nccc(Oc4ccc(NC(CC(=O)Nc5ccc(F)cc5)C(F)(F)F)cc4)c3s2)c1` (configuration not stated), the IC50 in experiment [2] was found to be 880 nM; in [1] it was 20 nM; in experiment [3] it was 180 nM.

With `CN(C(=O)CC(=O)Nc1ccc(Oc2ccnc3cc(-c4cn(C)cn4)sc23)c(F)c1)c1ccccc1`, the half-inhibitory concentration (IC50) in [3] was 40 nM.

As to `COc1ccccc1NC(=O)CC(Nc1ccc(Oc2ccnc3cc(-c4cn(C)cn4)sc23)c(F)c1)C(F)(F)F` (configuration not stated), the inhibition in [4] is > 95%; in [5], > 95%; in experiment [6] it was 50%; in [7] it was < 50%; in experiment [8], < 50%; in experiment [9], < 50%. Further, the inhibition in [10], in [11], in experiment [12], in [13], in [14] and in experiment [15] was < 50% in each case. The inhibition in [16], in [17], in experiment [18], in [19], in experiment [20] and in experiment [21] was < 50% each time. Also, the inhibition in experiment [22] is < 50%; in experiment [23], < 50%; in experiment [24], < 50%; in experiment [25], < 50%; in [26] it was 50%; in [27], 50%. In addition, the inhibition in [28] and in experiment [29] was 50% throughout. The results for the IC50 in [2], in experiment [1] and in [3] were 1800 nM, 20 nM and 840 nM, respectively.

`Cn1cnc(-c2cc3nccc(Oc4ccc(NC(=O)CC(=O)Nc5ccccc5)cc4F)c3s2)c1`: the IC50 in experiment [1] came to 20 nM; in experiment [3], 30 nM.

For `O=C(CC(Nc1ccc(Oc2cc(NC(=O)N3CCCC3)ncn2)c(F)c1)C(F)(F)F)Nc1ccccc1` (configuration not stated), the inhibition result in [30], in experiment [31], in experiment [32], in experiment [33] and in experiment [34] was “inactive” each time. Further, the inhibition result in [35] and in [36] was “Active” throughout. Further, the IC50 was 40 nM in [37]; 10 nM in experiment [38]; 6 nM in experiment [40]; 40 nM in experiment [1]; > 5000 nM in experiment [3]. Further, the values for the inhibition at 0.1 µM in experiment [39] and in experiment [41] were 97% and 95%, respectively.

As to `Cn1cnc(-c2cc3nccc(Oc4ccc(NC(CC(=O)Nc5ccccc5)C(F)(F)F)cc4F)c3s2)c1` (configuration not stated), in experiment [1], the IC50 was found to be 10 nM.

`COc1cc2ncnc(Oc3ccc(NC(=O)CC(Nc4ccccc4)C(F)(F)F)cc3F)c2cc1OC` (configuration not stated): the half-inhibitory concentration (IC50) in experiment [1] was 860 nM; in experiment [3], > 5000 nM.

`COc1cc2nccc(Oc3ccc(NC(=O)CC(Nc4ccccc4)C(F)(F)F)cc3F)c2cc1OC` (configuration not stated): the IC50 came out at 360 nM in [1] and 680 nM in experiment [3].
